According to patent publication US20020081731A1, “MANIPULATION OF PLANT CELL AND TISSUE CULTURES” (priority 1995, published 2002):

Tested on: E. californica suspension subcultures
Assay: Seed pretreatment, HPLC analysis of suspension subculture extracts
Assay type: cell-based, Eschscholtzia californica
Conditions: ungerminated seeds pretreated or not pretreated; T1 and T3 conditions; organic solvent extract of cell biomass
Excerpt: Ungerminated E. californica seeds were either pretreated by exposure to 5-azacytidine, or not pretreated. After uniform germination, callus induction and subculture, suspension initiation, and suspension subculture, the resulting suspension subcultures were subjected to T1 (control) and T3 conditions.

## Nc1ncn([C@@H]2O[C@H](CO)[C@@H](O)[C@H]2O)c(=O)n1 [5-azacytidine]
  size, number, and location of peaks in the chromatograms: significantly altered the size, number, and location of peaks
